Source: patent US20230293535A1, “ERBB/BTK INHIBITORS” (Dizal (Jiangsu) Pharmaceutical Co., Ltd., priority 2018, published 2023)

What was measured:
Assay type in all cases: cell-based
WT EGFR cell line A-431 = assay: Cell proliferation, WT EGFR A431 (CellTiter-Glo, 72 h); settings: Homo sapiens, A-431, 72 h, A431, 72 h proliferation; read-out: EGFR WT A431 GI50;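 also: proliferation from a luminescent ATP viability signal, expressed as 100 × (treated minus time-zero plate) over (DMSO control minus time-zero plate), cells grown with 10% FBS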
WT EGFR = target: T1, WT EGFR (Homo sapiens, UniProt P00533); assay: WT EGFR cellular phosphorylation inhibition in A-431 (hEGF stimulated, MSD); settings: A431 cells, 4 h compound, then 100 ng/ml hEGF 10 min;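 also: electrochemiluminescence read-out of EGFR Tyr1068 phosphorylation expressed as ratio to total EGFR, cells kept in medium with 1% FBS, compounds tested as a concentration series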
T1 construct: host or cells: A-431

Ba/F3 EGFR ASV ins cells = assay: Cell proliferation, Ba/F3 EGFR ASV ins (CellTiter-Glo, 72 h); settings: Ba/F3 EGFR, 72 h, Ba/F3 EGFR ASV ins, 72 h proliferation; read-out: EGFR Exon20 ASV insertion GI50;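 also: IL3-independent Ba/F3 cells transduced with EGFR V769_D770insASV, cellular ATP luminescence after compound exposure, growth relative to DMSO control with the day-0 baseline reading subtracted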
[1] = target: T2, human EGFR exon 20 H773_V774insNPH (Homo sapiens, UniProt P00533, INS773NPH); assay: EGFR Exon20 NPH insertion cellular phosphorylation inhibition (MSD pEGFR Y1068/total EGFR); settings: Ba/F3 EGFR NPH ins cells, 4 h compound, p-EGFR(Y1068)/total EGFR;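 also: IL3-independent Ba/F3 cells with constitutively phosphorylated EGFR, compound exposure at 37 °C under 5% CO2, electrochemiluminescent MSD measurement of the p-EGFR to total EGFR ratio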
T2 construct: host or cells: Ba/F3

[2] = system: Her2 exon 20 insertion YVMA transduced NIH-3T3 cell line; assay: Cell proliferation, Her2 YVMAins NIH-3T3 (CellTiter-Glo, 72 h); settings: Mus musculus, NIH3T3, 72 h, Her2 YVMAins cells, 72 h proliferation; read-out: Her2 Exon 20 YVMA insertion GI50;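 also: viable cells quantified by ATP luminescence, growth over a day-zero baseline plate expressed as percent of DMSO control growth, compound dilution series in 10% FBS medium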
OCI-LY-10 cells = assay: BTK (wt) cell proliferation, OCI-LY-10 (CellTiter-Glo, 72 h); settings: Homo sapiens, OCI-Ly10, 72 h, OCI-LY-10 cells, 72 h, CellTiter-Glo; read-out: BTK WT OCI-LY-10 GI50;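 also: viable cells quantified via cellular ATP luminescence, proliferation given as percent of DMSO control after subtracting a duplicate plate read at time of dosing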
Description: OCI-LY-10 at 3,750 cells/well, TMD-8 and Ri-1 at 2,000 cells/well, and DB at 1,250 cells/well, respectively, were sorted into 384-well plates in RPMI1640 medium with 10% FBS. After overnight incubation, all cells were incubated with compound at a series of concentrations. Meanwhile, a duplicated plate of each cell line was prepared for measuring G0 value. The dosed plates were further incubated for 72 hours and the number of viable cells was measured by CellTiter-Glo® Luminescent Cell Viability Assay (Promega), a luminescent method for determining the number of viable cells through measurement of cellular ATP concentration using Envision plate reader (PerkinElmer). The percentage of proliferation was calculated as: % Proliferation = 100 × (G3 value of sample well - G0 value)/(G3 value of DMSO control - G0 value).

TMD-8 cells = assay: BTK (wt) cell proliferation, TMD-8 (CellTiter-Glo, 72 h); settings: Homo sapiens, TMD8, 72 h, TMD-8 cells, 72 h, CellTiter-Glo; read-out: BTK WT TMD-8 GI50;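 also: viable cells quantified by ATP-based luminescence, proliferation expressed as percent of DMSO control after subtracting a time-zero baseline plate read at dosing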
[3] = target: T3, human Her2 exon 20 insertion mutation YVMA (Homo sapiens, UniProt P04626, INS775YVMA); assay: Her2 Exon 20 YVMA insertion cellular phosphorylation inhibition (MSD p-Her2 Y1248/total Her2); settings: Her2 YVMAins cells, 4 h compound;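 also: lentivirally transduced NIH-3T3 cells in 1% FBS medium, electrochemiluminescent MSD read-out, graded compound concentrations at 37 °C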
T3 construct: expressed in transfected cells; host or cells: NIH-3T3, lentiviral transduction, puromycin selection

[4] = system: NCI-H1975 EGFR L858R/T790M cells; assay: Cell proliferation, NCI-H1975 EGFR L858R/T790M (CellTiter-Glo, 72 h); settings: Homo sapiens, NCI-H1975, 72 h, NCI-H1975, 72 h proliferation; read-out: EGFR L858R and T790M mutation GI50;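 also: viable cells quantified by luciferase-based ATP luminescence, proliferation expressed relative to DMSO-treated wells (100%) after subtracting a parallel plate read at the time of dosing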
Description: WT or mutant cells were seeded in 384 well plates at appropriate concentrations with corresponding growth media supplemented with 10% FBS, for each experiment, identical plates were prepared in duplicates, and the plates were incubated overnight. On the next day, one of each duplicated plates was dosed with tested compounds at a series of concentrations, and another one of the duplicated plate was analysied for G0 value. The dosed plates were incubate for another 72 h at 37° C. with 5% CO2 and the number of viable cells in each well of the G0 plates or the dosed plates were measured by CellTiter-Glo® Luminescent Cell Viability Assay (Promega). This assay is a luminescent method for determining the number viable cells through measurement of cellular ATP concentration by detection of luciferase activity. Detection reagents (15 µl) was dispensed into per well, and the plates were incubate for 30 min at room temperature. Then, the luminescence in each well was measured using the Envision plate reader (PerkinElmer). The percentage of proliferation was calculated based on the formula: %Proliferation= 100 × (G3 value of sample well-Go value)/(G3 value of DMSO control-Go value).

EGFR L858R&T790M = target: T4, EGFR L858R&T790M (Homo sapiens, UniProt P00533, L858R/T790M); assay: EGFR L858R and T790M cellular phosphorylation inhibition in NCI-H1975 (MSD); settings: NCI-H1975 cells, 4 h compound, p-EGFR(Y1068)/total EGFR; read-out: EGFR L858R and T790M mutation IC50;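 also: phosphorylated and total EGFR detected by electrochemiluminescence, cells exposed to compound in medium containing 1% FBS at 37 °C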
T4 construct: host or cells: NCI-H1975
Description: One day before the test, WT or mutant cells were seeded in 96 well plates at appropriate concentrations with corresponding growth media supplemented with 1% FBS, and incubated overnight. The next day, tested compounds at a series of concentrations were added into each individual well of the plates, and the plates were incubated for 4 h at 37° C. with 5% CO2.
The EGFR (Y1068) phosphorylation level (activity) of cells in each well were then measured with MSD kit named “MULTI-SPOT®96 4-Spot HB Prototype EGFR Triplex [sequence]: pEGFR(Tyr1068),pEGFR(Tyr1173), Total EGFR” according to the manufacturer’s instruction (MESO SCALE DISCOVERY, Cat# N45ZB-1). The assay is an electrochemiluminescent method for determining both phosphorylated and total EGFR of cells with an MSD SECTOR® Imager and the ratio of p-EGFR/total EGFR can be generated by the machine. The Her2 (Y1248) phosphorylation level (activity) of cells in each well were measured with MSD Kit named “Phospho-ErbB2 (Tyr1248) Assay Whole Cell Lysate Kit” according to the manufacturer’s instruction (MESO SCALE DISCOVERY, Cat# K151CLD-3). The assay is an electrochemiluminescent method (MESO SCALE DISCOVERY) for determining both phosphorylated and total Her2 of cells with an MSD SECTOR® Imager and then the ratio of p-Her2/total Her2 can be generated by the machine.

Ri-1 cells = assay: BTK (wt) cell proliferation, Ri-1 (CellTiter-Glo, 72 h); settings: Ri-1, 72 h, Ri-1 cells, 72 h, CellTiter-Glo; read-out: BTK WT Ri-1 GI50;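 also: viable cells quantified as cellular ATP luminescence, proliferation normalized to a time-zero plate and the DMSO control, compounds tested across a dilution series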
Ba/F3 EGFR NPH ins cells = assay: Cell proliferation, Ba/F3 EGFR NPH ins (CellTiter-Glo, 72 h); settings: Ba/F3 EGFR, 72 h, Ba/F3 EGFR NPH ins, 72 h proliferation; read-out: EGFR Exon20 NPH insertion GI50;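 also: IL3-independent cells carrying constitutively phosphorylated EGFR, compound dilution series, viable cells quantified by ATP luminescence, growth relative to DMSO wells after subtracting pre-dosing (day 0) baseline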
DB cells = assay: BTK (wt) cell proliferation, DB (CellTiter-Glo, 72 h); settings: Homo sapiens, DB, DB cells, CellTiter-Glo, read-out: Non-BCR activated DB GI50;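 also: DB cells in 384-well plates given a dilution series of compound, viable cells read by ATP luminescence, growth expressed versus DMSO control after subtracting a time-zero plate reading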
[5] = target: T5, human EGFR exon 20 V769_D770insASV (Homo sapiens, UniProt P00533, INS769ASV); assay: EGFR Exon20 ASV insertion cellular phosphorylation inhibition (MSD pEGFR Y1068/total EGFR); settings: Ba/F3 EGFR ASV ins cells, 4 h compound, p-EGFR(Y1068)/total EGFR;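 also: electrochemiluminescent readout on an MSD SECTOR Imager, IL3-independent transduced cells in medium with 1% FBS, compound concentration series at 37 °C and 5% CO2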
T5 construct: expressed in transfected cells; host or cells: Ba/F3 (DSMZ ACC-300), lentiviral transduction, puromycin selection, IL3 depletion

T1 sequence (P00533 25-1210): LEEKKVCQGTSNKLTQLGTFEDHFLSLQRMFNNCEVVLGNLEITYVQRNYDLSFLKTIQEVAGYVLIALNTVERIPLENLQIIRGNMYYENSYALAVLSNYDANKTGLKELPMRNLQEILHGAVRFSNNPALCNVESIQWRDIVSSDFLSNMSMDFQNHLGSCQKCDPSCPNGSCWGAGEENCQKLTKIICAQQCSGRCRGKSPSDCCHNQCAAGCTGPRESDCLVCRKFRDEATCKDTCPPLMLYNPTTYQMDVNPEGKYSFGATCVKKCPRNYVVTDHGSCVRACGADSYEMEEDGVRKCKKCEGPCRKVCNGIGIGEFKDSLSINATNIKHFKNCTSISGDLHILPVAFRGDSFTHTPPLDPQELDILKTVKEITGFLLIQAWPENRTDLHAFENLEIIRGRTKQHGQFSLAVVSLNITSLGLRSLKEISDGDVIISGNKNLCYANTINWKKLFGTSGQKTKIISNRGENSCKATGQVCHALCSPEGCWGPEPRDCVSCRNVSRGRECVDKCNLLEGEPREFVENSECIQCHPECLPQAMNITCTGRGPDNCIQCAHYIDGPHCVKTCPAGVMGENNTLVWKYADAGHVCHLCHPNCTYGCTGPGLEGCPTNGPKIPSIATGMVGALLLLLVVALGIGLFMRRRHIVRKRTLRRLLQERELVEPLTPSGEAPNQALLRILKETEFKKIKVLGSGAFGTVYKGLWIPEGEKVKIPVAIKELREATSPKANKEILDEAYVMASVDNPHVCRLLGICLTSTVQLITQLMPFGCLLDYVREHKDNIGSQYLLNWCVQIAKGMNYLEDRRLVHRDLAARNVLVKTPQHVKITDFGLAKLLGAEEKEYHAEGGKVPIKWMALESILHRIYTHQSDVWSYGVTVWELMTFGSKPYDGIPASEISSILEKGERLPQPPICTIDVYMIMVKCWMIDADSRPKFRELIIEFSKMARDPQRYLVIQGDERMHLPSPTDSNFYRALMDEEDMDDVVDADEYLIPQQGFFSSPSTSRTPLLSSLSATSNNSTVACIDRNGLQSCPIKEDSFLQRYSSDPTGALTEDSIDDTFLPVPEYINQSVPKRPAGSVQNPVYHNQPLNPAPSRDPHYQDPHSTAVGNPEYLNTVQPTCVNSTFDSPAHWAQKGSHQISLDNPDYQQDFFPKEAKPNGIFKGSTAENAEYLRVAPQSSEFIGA
T4 sequence (P00533 25-1210 T790M/L858R): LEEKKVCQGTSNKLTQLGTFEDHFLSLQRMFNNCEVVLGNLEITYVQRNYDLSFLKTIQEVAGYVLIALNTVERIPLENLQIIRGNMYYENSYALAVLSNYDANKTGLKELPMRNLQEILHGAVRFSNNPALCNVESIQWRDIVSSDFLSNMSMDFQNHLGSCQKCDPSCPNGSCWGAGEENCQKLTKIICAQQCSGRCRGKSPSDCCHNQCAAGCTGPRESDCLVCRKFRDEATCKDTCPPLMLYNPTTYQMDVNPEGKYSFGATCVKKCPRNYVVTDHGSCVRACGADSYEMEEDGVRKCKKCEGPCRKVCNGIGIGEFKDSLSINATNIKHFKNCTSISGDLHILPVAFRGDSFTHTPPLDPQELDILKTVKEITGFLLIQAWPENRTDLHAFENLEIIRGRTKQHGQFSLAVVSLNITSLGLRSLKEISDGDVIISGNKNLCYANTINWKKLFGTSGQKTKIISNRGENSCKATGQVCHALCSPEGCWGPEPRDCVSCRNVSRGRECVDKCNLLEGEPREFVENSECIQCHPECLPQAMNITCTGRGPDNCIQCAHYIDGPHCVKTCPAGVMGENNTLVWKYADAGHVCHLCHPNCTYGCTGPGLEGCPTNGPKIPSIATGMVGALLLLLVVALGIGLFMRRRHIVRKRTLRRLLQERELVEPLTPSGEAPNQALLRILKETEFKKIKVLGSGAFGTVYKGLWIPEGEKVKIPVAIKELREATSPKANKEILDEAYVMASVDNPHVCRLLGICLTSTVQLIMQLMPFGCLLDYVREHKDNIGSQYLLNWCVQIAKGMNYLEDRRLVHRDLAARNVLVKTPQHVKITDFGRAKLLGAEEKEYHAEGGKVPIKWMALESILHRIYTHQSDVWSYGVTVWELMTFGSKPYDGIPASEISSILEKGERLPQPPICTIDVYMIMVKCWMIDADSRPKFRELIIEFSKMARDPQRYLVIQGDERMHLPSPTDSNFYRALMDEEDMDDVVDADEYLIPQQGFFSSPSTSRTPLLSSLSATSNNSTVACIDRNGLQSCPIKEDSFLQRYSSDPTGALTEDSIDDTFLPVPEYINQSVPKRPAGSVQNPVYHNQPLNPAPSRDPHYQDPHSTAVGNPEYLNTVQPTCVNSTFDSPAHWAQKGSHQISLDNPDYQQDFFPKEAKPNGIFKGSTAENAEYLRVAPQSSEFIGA
T2 sequence (P00533 with tags, fused parts or gaps INS773NPH): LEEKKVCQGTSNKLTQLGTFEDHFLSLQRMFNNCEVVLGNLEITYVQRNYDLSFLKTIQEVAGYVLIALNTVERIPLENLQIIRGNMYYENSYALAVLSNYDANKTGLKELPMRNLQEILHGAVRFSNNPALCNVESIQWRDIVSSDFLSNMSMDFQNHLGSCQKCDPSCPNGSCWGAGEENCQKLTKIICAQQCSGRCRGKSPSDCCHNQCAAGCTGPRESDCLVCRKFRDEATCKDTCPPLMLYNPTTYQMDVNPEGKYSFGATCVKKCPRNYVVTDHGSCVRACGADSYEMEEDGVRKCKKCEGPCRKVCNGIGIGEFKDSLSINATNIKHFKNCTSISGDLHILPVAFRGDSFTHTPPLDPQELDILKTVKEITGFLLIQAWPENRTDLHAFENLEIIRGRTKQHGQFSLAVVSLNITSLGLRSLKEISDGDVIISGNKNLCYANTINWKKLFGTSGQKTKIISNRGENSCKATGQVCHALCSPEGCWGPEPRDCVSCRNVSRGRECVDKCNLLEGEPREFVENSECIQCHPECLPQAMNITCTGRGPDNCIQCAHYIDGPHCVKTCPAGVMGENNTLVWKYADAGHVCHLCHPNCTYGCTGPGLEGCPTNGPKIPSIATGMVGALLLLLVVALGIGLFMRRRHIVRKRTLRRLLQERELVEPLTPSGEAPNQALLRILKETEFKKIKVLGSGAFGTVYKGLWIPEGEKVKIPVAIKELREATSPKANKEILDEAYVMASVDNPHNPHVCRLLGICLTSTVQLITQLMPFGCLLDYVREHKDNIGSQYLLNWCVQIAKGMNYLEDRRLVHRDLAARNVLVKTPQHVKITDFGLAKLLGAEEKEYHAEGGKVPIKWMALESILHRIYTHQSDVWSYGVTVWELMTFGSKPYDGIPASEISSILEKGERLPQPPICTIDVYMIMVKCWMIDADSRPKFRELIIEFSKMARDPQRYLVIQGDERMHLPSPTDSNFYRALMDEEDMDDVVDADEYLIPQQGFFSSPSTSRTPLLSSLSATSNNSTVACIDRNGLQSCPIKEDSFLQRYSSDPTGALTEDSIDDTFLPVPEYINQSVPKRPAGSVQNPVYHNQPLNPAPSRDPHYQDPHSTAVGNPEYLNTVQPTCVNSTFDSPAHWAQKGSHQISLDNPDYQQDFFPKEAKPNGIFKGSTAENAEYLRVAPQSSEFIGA
T3 sequence (P04626 with tags, fused parts or gaps INS775YVMA): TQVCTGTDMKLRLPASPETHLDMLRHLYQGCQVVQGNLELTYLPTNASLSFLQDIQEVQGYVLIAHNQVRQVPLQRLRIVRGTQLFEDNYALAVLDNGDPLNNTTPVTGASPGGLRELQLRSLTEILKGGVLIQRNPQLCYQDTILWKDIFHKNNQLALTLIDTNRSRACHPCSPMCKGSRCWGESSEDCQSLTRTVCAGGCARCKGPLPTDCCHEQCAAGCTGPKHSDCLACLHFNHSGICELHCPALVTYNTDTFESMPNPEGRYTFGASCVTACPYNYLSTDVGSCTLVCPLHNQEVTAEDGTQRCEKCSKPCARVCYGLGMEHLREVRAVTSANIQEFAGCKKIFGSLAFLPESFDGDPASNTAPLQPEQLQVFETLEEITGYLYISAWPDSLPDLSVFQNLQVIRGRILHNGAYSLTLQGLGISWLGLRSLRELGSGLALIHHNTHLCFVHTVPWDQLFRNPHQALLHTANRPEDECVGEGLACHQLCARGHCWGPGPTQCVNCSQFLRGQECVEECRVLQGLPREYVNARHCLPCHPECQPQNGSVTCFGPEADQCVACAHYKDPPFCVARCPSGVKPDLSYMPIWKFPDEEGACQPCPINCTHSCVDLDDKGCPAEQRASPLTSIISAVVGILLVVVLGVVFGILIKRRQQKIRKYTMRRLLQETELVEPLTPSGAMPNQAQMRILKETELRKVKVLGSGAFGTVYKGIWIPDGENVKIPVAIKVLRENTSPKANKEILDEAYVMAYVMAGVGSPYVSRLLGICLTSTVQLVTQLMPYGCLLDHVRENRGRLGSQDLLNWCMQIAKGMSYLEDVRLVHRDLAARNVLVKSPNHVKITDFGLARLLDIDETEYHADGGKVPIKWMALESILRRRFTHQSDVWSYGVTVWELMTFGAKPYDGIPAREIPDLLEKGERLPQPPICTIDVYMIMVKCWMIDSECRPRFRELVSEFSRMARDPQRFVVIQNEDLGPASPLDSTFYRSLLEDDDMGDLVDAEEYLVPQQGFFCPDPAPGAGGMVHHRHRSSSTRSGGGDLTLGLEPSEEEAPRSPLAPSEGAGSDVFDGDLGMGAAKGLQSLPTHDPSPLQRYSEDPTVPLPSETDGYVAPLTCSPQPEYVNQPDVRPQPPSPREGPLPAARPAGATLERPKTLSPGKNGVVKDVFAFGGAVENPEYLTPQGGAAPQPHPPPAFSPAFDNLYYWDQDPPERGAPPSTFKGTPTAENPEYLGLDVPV

GI50 (WT EGFR cell line A-431)	IC50 (WT EGFR)	GI50 (Ba/F3 EGFR ASV ins cells)	IC50 [1]	GI50 (OCI-LY-10 cells)	IC50 [3]	GI50 [4]	IC50 (EGFR L858R&T790M)	GI50 (Ba/F3 EGFR NPH ins cells)	IC50 [5]	Structure (SMILES)	GI50 [2]	GI50 (TMD-8 cells)	GI50 (Ri-1 cells)	GI50 (DB cells)
13.8 nM	13.1 nM	21.8 nM	12.6 nM	1.57 nM	9 nM	1.6 nM	0.8 nM	23.2 nM	6.7 nM	C=CC(=O)Nc1cc(Nc2ncnc(Nc3cc(F)c(Cl)cc3C(C)(C)O)n2)c(OC)cc1N1CC[C@@H]2CN(C)C[C@@H]21 [Compound 41, N-(5-(4-(4-chloro-5-fluoro-2-(2-hydroxypropan-2-yl)phenylamino)-1,3,5-triazin-2-ylamino)-4-methoxy-2-((3aR,6aR)-5-methylhexahydropyrrolo[3,4-b]pyrrol-1 (2H)-yl)phenyl)acrylamide]	52.1 nM	4.57 nM	4.92 nM	> 3000 nM
4.3 nM	8.1 nM	9.3 nM	3.9 nM	7.6 nM	2.9 nM	1.2 nM	0.3 nM	17.4 nM	5.9 nM	C=CC(=O)Nc1cc(Nc2ncnc(Nc3cc(F)c(Cl)cc3C(C)(C)O)n2)c(OC)cc1N1CCC[C@@H]1CN(C)C [Compound 43, (R)-N-(5-(4-(4-chloro-5-fluoro-2-(2-hydroxypropan-2-yl)phenylamino)-1,3,5-triazin-2-ylamino)-2-(2-((dimethylamino)methyl)pyrrolidin-1-yl)-4-methoxyphenyl)acrylamid]	27.6 nM	13.6 nM	28.5 nM	> 3000 nM
14.8 nM	30.9 nM	29.8 nM	6.8 nM	6.75 nM	8 nM	3.6 nM	0.5 nM	39 nM	12.5 nM	C=CC(=O)Nc1cc(Nc2ncnc(Nc3cc(Cl)c(F)cc3C(C)(C)O)n2)c(OC)cc1N(C)C[C@@H]1CCCN1C [Compound 44, (S)-N-(5-(4-(5-chloro-4-fluoro-2-(2-hydroxypropan-2-yl)phenylamino)-1,3,5-triazin-2-ylamino)-4-methoxy-2-(methyl((1-methylpyrrolidin-2-yl)methyl)amino)phenyl) acrylamide]	74.6 nM	4.32 nM	10.4 nM	> 3000 nM
4.3 nM	7.6 nM	13.6 nM	2.9 nM	5.25 nM	3 nM	1.1 nM	0.3 nM	17.8 nM	6.5 nM	C=CC(=O)Nc1cc(Nc2ncnc(Nc3cc(F)c(C4CC4)cc3C(C)(C)O)n2)c(OC)cc1N1CC[C@@H]2CN(C)C[C@@H]21 [Compound 45, N-(5-(4-(4-cyclopropyl-5-fluoro-2-(2-hydroxypropan-2-yl)phenylamino)-1,3,5-triazin-2-ylamino)-4-methoxy-2-((3aR,6aR)-5-methylhexahydropyrrolo[3,4-b]pyrrol-1(2H)-yl)phenyl)acrylamide]	30.8 nM	2.33 nM	11.6 nM	> 3000 nM
4.5 nM	8.7 nM	8.2 nM	2.5 nM	2.97 nM	1.7 nM	1.4 nM	0.2 nM	18.8 nM	6.4 nM	C=CC(=O)Nc1cc(Nc2ncnc(Nc3cc(F)c(C4CC4)cc3C(C)(C)O)n2)c(OC)cc1N1CCC[C@@H]1CN(C)C [Compound 46, (R)-N-(5-(4-(4-cyclopropyl-5-fluoro-2-(2-hydroxypropan-2-yl)phenylamino)-1,3,5-triazin-2-ylamino)-2-(2-((dimethylamino)methyl)pyrrolidin-1-yl)-4-methoxyphenyl)acrylamide]	16.8 nM	0.9 nM	6.49 nM	2580 nM
10.9 nM	23.8 nM	22.1 nM	5.6 nM	775 nM	4.4 nM	1.9 nM	0.3 nM	27.1 nM	10.1 nM	C=CC(=O)Nc1cc(Nc2ncnc(Nc3cc(F)c(F)cc3C(C)(O)CC)n2)c(OC)cc1N1CC[C@@H]2CN(C)C[C@@H]21 (stereo partly drawn) [Compound 47, N-(5-(4-(4,5-difluoro-2-(2-hydroxybutan-2-yl)phenylamino)-1,3,5-triazin-2-ylamino)-4-methoxy-2-((3aR,6aR)-5-methylhexahydropyrrolo[3,4-b]pyrrol-1(2H)-yl)phenyl) acrylamide]	34.1 nM	55.3 nM	208 nM	> 3000 nM
14.1 nM	28.4 nM	29.1 nM	11.1 nM	14.1 nM	2.8 nM	3.2 nM	0.4 nM	57.9 nM	16.2 nM	C=CC(=O)Nc1cc(Nc2ncnc(Nc3cc(F)c(F)cc3C(C)(O)CC)n2)c(OC)cc1N1CC[C@@H](N(C)C)C1 (stereo partly drawn) [Compound 48, N-(5-(4-(4,5-difluoro-2-(2-hydroxybutan-2-yl)phenylamino)-1,3,5-triazin-2-ylamino)-2-((R)-3-(dimethylamino)pyrrolidin-1-yl)-4-methoxyphenyl)acrylamide]	57.9 nM	70.2 nM	371 nM	> 3000 nM
15.3 nM	22.8 nM	31.9 nM	19.6 nM	1250 nM	6.2 nM	1.5 nM	0.5 nM	31.6 nM	9.6 nM	C=CC(=O)Nc1cc(Nc2ncnc(Nc3cc(F)c(F)cc3C(C)(O)CC)n2)c(OC)cc1N(C)CCN(C)C (centres unmarked) [Compound 49, N-(5-(4-(4,5-difluoro-2-(2-hydroxybutan-2-yl)phenylamino)-1,3,5-triazin-2-ylamino)-2-((2-(dimethylamino)ethyl)(methyl)amino)-4-methoxyphenyl)acr ylamide]	36.1 nM	107 nM	566 nM	> 3000 nM
41.3 nM	60.5 nM	104 nM	29.9 nM	4.42 nM	14.2 nM	6.1 nM	2.4 nM	68 nM	39.4 nM	C=CC(=O)Nc1cc(Nc2ncnc(Nc3cc(Cl)c(Cl)cc3C(C)(C)O)n2)c(OC)cc1N1CC[C@@H]1CN(C)C [Compound 54, (R)-N-(5-(4-(4,5-dichloro-2-(2-hydroxypropan-2-yl)phenylamino)-1,3,5-triazin-2-ylamino)-2-(2-((dimethylamino)methyl)azetidin-1-yl)-4-methoxyphenyl)acrylamide]	210 nM	3.62 nM	9.97 nM	> 3000 nM
14.6 nM	30.9 nM	44.1 nM	20.1 nM	6.68 nM	8.4 nM	3.8 nM	0.8 nM	62.6 nM	9.8 nM	C=CC(=O)Nc1cc(Nc2ncnc(Nc3cc(F)c(F)cc3C(C)(O)CC)n2)c(OC)cc1N1CC[C@@H]1CN(C)C (stereo partly drawn) [Compound 55, N-(5-(4-(4,5-difluoro-2-(2-hydroxybutan-2-yl)phenylamino)-1,3,5-triazin-2-ylamino)-2-((R)-2-((dimethylamino)methyl)azetidin-1-yl)-4-methoxyphenyl)acrylamide]	88.9 nM	11.5 nM	12 nM	> 3000 nM
